Reference: patent publication US20250250269A1, “HETEROCYCLIC GLP-1 AGONISTS” (Gasherbrum Bio, Inc., priority 2022, published 2025)

These molecules were tested against T1, GLP-1 Receptor (Homo sapiens, UniProt P43220) (assay: GLP-1R agonist cAMP stimulation assay (HEK293/GLP1R/CRE-LUC cells, Cisbio cAMP dynamic 2 kit)). Settings: HEK293/CRE-Luc cells stably expressing the GLP-1 Receptor, 30 min at 37° C.
T1 construct: host or cells: HEK293/CRE-Luc (HEK293/GLP1R/CRE-LUC)
Assay type: cell-based
Procedure: Activation of GLP-1 receptor is known to stimulate cyclic AMP (cAMP) production in cells which indicates primary coupling to the Gas subunit of the G protein heterotrimeric complex.
To optimize functional activity directed toward Gas coupling, a HEK293/CRE-Luc cell line developed by HDB stably expressing the GLP-1 Receptor was used. 200× concentration of compound working solutions were prepared (Agilent Technologies Bravo) with ½ log serial dilution in 384-well Echo LDV plate (Labcyte, Cat #LP-0200). […] 200× concentration of compound working solutions were moved to 384-well white low volume plate (Greiner, Cat #784075) using Labcyte ECHO550. 1×10^5 cells/mL HEK293/GLP1R/CRE-LUC (HD Biosciences) cell suspensions prepared with assay buffer [DPBS containing 0.5 mM IBMX (Sigma, Cat #15879) and 0.1% BSA (GENVIEW, Cat #FA016-100g)], 10 μL cell suspensions were added to each well of previous generated assay plate which already contains […] compound at 200×concentration using ThermoFisher Multidrop Combi (1000 cells/well). Seal the plate and incubate at 37° C. with 5% CO2 for 30 min.
After incubation the cAMP assay signal was generated using cAMP dynamic 2 Kit (Cisbio). 5 μL cAMP-d2 working solution was added to each well, followed with 5 μL Anti-cAMP antibody-cryptate working solution added to each well using ThermoFisher Multidrop Combi. Incubate at room temperature for 1 hour protected from light. Read the fluorescence at 665 and 615 nm with Reader PerkinElmer EnVision.

T1 sequence (P43220 24-463, species assumed): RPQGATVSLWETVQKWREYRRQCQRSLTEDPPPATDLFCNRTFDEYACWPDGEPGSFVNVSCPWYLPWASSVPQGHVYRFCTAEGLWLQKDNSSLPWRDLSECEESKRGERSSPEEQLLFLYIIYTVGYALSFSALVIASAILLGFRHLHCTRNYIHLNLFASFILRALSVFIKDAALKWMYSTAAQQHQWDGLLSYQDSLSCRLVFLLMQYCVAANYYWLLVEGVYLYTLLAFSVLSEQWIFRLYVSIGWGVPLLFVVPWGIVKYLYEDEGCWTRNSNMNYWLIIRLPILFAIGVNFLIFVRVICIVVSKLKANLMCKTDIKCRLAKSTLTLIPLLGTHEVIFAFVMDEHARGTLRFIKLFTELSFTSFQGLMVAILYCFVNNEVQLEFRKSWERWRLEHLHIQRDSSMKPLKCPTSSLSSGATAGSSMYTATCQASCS

| SMILES | EC50 [nM] |
| --- | --- |
| Fc1ccc(COc2cccc(C3CCN(Cc4nc5cc(-c6nnc(C(F)(F)F)[nH]6)ncc5n4C[C@@H]4CCO4)CC3)n2)nc1OC(F)F [Compound 14, (S)-2-((4-(6-((6-(difluoromethoxy)-5-fluoropyridin-2-yl)methoxy)pyridin-2-yl)piperidin-1-yl)methyl)-3-(oxetan-2-ylmethyl)-6-(5-(trifluoromethyl)-4H-1,2,4-triazol-3-yl)-3H-imidazo[4,5-c]pyridine] | < 1 |
| C[C@]1(c2ccc(Cl)cn2)Oc2cccc(C3CCN(Cc4nc5cc(-c6noc(=O)[nH]6)cc(F)c5n4C[C@@H]4CCO4)CC3)c2O1 [Compound 37, 3-(2-((4-((S)-2-(5-chloropyridin-2-yl)-2-methylbenzo[d][1,3]dioxol-4-yl)piperidin-1-yl)methyl)-7-fluoro-1-(((S)-oxetan-2-yl)methyl)-1H-benzo[d]imidazol-5-yl)-1,2,4-oxadiazol-5(4H)-one] | 1 to 100 |
| Fc1ccc(COc2cccc(C3CCN(Cc4nc5cc(-c6nnc(C(F)(F)F)[nH]6)ncc5n4C[C@@H]4CCO4)CC3)n2)c(F)c1 [Compound 1, 2-[(2,4-difluorophenyl)methoxy]-6-{1-[(3-{[(2S)-oxetan-2-yl]methyl}-6-[5-(trifluoromethyl)-4H-1,2,4-triazol-3-yl]-3H-imidazo[4,5-c]pyridin-2-yl)methyl]piperidin-4-yl}pyridine] | < 1 |
| Cc1nnc(-c2ccc3c(nc(CN4CCC(c5cccc6c5O[C@@](C)(c5ccc(Cl)cc5F)O6)CC4)n3C[C@@H]3CCO3)c2F)[nH]1 [Compound 40, 2-((4-((S)-2-(4-chloro-2-fluorophenyl)-2-methylbenzo[d][1,3]dioxol-4-yl)piperidin-1-yl)methyl)-4-fluoro-5-(5-methyl-4H-1,2,4-triazol-3-yl)-1-(((S)-oxetan-2-yl)methyl)-1H-benzo[d]imidazole] | < 1 |
| C[C@]1(c2ccc(Cl)cc2F)Oc2cccc(C3CCN(Cc4nc5c(F)c(-c6noc(=O)[nH]6)ccc5n4C[C@@H]4CCO4)CC3)c2O1 [Compound 34, 3-(2-((4-((S)-2-(4-chloro-2-fluorophenyl)-2-methylbenzo[d][1,3]dioxol-4-yl)piperidin-1-yl)methyl)-4-fluoro-1-(((S)-oxetan-2-yl)methyl)-1H-benzo[d]imidazol-5-yl)-1,2,4-oxadiazol-5(4H)-one] | < 1 |
| FC(F)(F)Oc1cccc(COc2cccc(C3CCN(Cc4nc5cc(-c6nnc(C(F)(F)F)[nH]6)ncc5n4C[C@@H]4CCO4)CC3)n2)c1 [Compound 11, (S)-3-(oxetan-2-ylmethyl)-2-((4-(6-((3-(trifluoromethoxy)benzyl)oxy)pyridin-2-yl)piperidin-1-yl)methyl)-6-(5-(trifluoromethyl)-4H-1,2,4-triazol-3-yl)-3H-imidazo[4,5-c]pyridine] | < 1 |
| CNC(=O)c1cc2nc(CN3CCC(c4cccc5c4O[C@@](C)(c4ccc(Cl)cc4F)O5)CC3)n(C[C@@H]3CCO3)c2cn1 [Compound 24, 2-((4-((S)-2-(4-chloro-2-fluorophenyl)-2-methylbenzo[d][1,3]dioxol-4-yl)piperidin-1-yl)methyl)-N-methyl-3-(((S)-oxetan-2-yl)methyl)-3H-imidazo[4,5-c]pyridine-6-carboxamide] | < 1 |
| COCCNC(=O)c1cc2nc(CN3CCC(c4cccc5c4O[C@@](C)(c4ccc(Cl)cc4F)O5)CC3)n(C[C@@H]3CCO3)c2cn1 [Compound 26, 2-((4-((S)-2-(4-chloro-2-fluorophenyl)-2-methylbenzo[d][1,3]dioxol-4-yl)piperidin-1-yl)methyl)-N-(2-methoxyethyl)-3-(((S)-oxetan-2-yl)methyl)-3H-imidazo[4,5-c]pyridine-6-carboxamide] | < 1 |
| C[C@]1(c2ccc(Cl)cn2)Oc2cccc([C@@H]3CCN(Cc4nc5cc(-c6nnc(C(F)(F)F)[nH]6)ncc5n4C[C@@H]4CCO4)C[C@H]3F)c2O1 (single isomer, unassigned) [Compound 63] | < 1 |
| C[C@]1(c2ccc(Cl)cn2)Oc2cccc(C3CCN(Cc4nc5c(F)c(-c6noc(=O)[nH]6)ccc5n4C[C@@H]4CCO4)CC3)c2O1 [Compound 36, 3-(2-((4-((S)-2-(5-chloropyridin-2-yl)-2-methylbenzo[d][1,3]dioxol-4-yl)piperidin-1-yl)methyl)-4-fluoro-1-(((S)-oxetan-2-yl)methyl)-1H-benzo[d]imidazol-5-yl)-1,2,4-oxadiazol-5(4H)-one] | < 1 |
| C[C@]1(c2ccc(Cl)cc2F)Oc2cccc(C3=CCN(Cc4nc5cc(-c6nnc(C(F)(F)F)[nH]6)cnc5n4C[C@@H]4CCO4)CC3)c2O1 [Compound 45, 2-((4-((S)-2-(4-chloro-2-fluorophenyl)-2-methylbenzo[d][1,3]dioxol-4-yl)-3,6-dihydropyridin-1(2H)-yl)methyl)-3-(((S)-oxetan-2-yl)methyl)-6-(5-(trifluoromethyl)-4H-1,2,4-triazol-3-yl)-3H-imidazo[4,5-b]pyridine] | < 1 |
| O[C@@H]1CN(Cc2nc3cc(-c4nnc(C(F)(F)F)[nH]4)ncc3n2C[C@@H]2CCO2)CC[C@H]1c1cccc(OCc2ccc(Cl)cc2F)n1 [Compound 57, (3,4-trans)-4-{6-[(4-chloro-2-fluorophenyl)methoxy]pyridin-2-yl}-1-[(3-{[(2S)-oxetan-2-yl]methyl}-6-[5-(trifluoromethyl)-4H-1,2,4-triazol-3-yl]-3H-imidazo[4,5-c]pyridin-2-yl)methyl]piperidin-3-ol] | < 1 |
| FC(F)Oc1nc(COc2cccc(C3CCN(Cc4nc5cc(-c6nnc(C(F)(F)F)[nH]6)ncc5n4C[C@@H]4CCO4)CC3)n2)ccc1Cl [Compound 13, (S)-2-((4-(6-((5-chloro-6-(difluoromethoxy)pyridin-2-yl)methoxy)pyridin-2-yl)piperidin-1-yl)methyl)-3-(oxetan-2-ylmethyl)-6-(5-(trifluoromethyl)-4H-1,2,4-triazol-3-yl)-3H-imidazo[4,5-c]pyridine] | < 1 |
| Fc1cn(C2CC2)nc1COc1cccc(C2CCN(Cc3nc4cc(-c5nnc(C(F)(F)F)[nH]5)ncc4n3C[C@@H]3CCO3)CC2)n1 [Compound 22, (S)-2-((4-(6-((1-cyclopropyl-4-fluoro-1H-pyrazol-3-yl)methoxy)pyridin-2-yl)piperidin-1-yl)methyl)-3-(oxetan-2-ylmethyl)-6-(5-(trifluoromethyl)-4H-1,2,4-triazol-3-yl)-3H-imidazo[4,5-c]pyridine] | 1 to 100 |
| Cc1nnc(-c2cc(F)c3c(c2)nc(CN2CC=C(c4cccc5c4OC(C)(c4ccc(Cl)cc4F)O5)CC2)n3C[C@@H]2CCO2)[nH]1 (stereo partly drawn) [Compound 43, 2-((4-(2-(4-chloro-2-fluorophenyl)-2-methylbenzo[d][1,3]dioxol-4-yl)-3,6-dihydropyridin-1(2H)-yl)methyl)-7-fluoro-5-(5-methyl-4H-1,2,4-triazol-3-yl)-1-(((S)-oxetan-2-yl)methyl)-1H-benzo[d]imidazole] | 1 to 100 |
| Fc1ccc(COc2cccc(C3CCN(Cc4nc5cc(-c6nnc(C(F)(F)F)[nH]6)ncc5n4C[C@@H]4CCO4)CC3)n2)c2c1OCO2 [Compound 17, (S)-2-((4-(6-((7-fluorobenzo[d][1,3]dioxol-4-yl)methoxy)pyridin-2-yl)piperidin-1-yl)methyl)-3-(oxetan-2-ylmethyl)-6-(5-(trifluoromethyl)-4H-1,2,4-triazol-3-yl)-3H-imidazo[4,5-c]pyridine] | < 1 |
